According to ChEMBL document CHEMBL3272148, “Antitumor 1-(X-aryl)-3,3-dialkyltriazenes. 2. On the role of correlation analysis in decision making in drug modification. Toxicity quantitative structure-activity relationships of 1-(X-phenyl)-3,3-dialkyltriazenes in mice” (J Med Chem, 1978):

species: Rattus norvegicus; assay: Toxicity in rat assessed as concentration required for producing T/C of 140; format: organism-based; settings: in vivo

Row | Structure (SMILES) | log(1/C)
1 | CN(C)/N=N/c1ccccc1 | 2.54
2 | Cc1ccc(/N=N/N(C)C)cc1 | 2.62
3 | CN(C)/N=N/c1ccc([N+](=O)[O-])cc1 | 2.06
4 | COc1ccc(/N=N/N(C)C)cc1 | 2.72
5 | CN(C)/N=N/c1ccc(I)cc1 | 2.68
6 | CN(C)/N=N/c1ccc(Br)cc1 | 2.73
7 | CN(C)/N=N/c1ccc(F)cc1 | 2.71
8 | CN(C)/N=N/c1ccc(Cl)cc1 | 2.71

species: Mus musculus; assay: Toxicity in mouse assessed as concentration required for producing T/C of 140; format: organism-based; settings: in vivo

Row | Structure (SMILES) | log(1/C)
9 | CCN(CC)/N=N/c1[nH]cnc1C(N)=O | 2.75
10 | CCCN(CCC)/N=N/c1[nH]cnc1C(N)=O | 2.7
11 | CCCCN(CCCC)/N=N/c1[nH]cnc1C(N)=O | 2.91
12 | CCCCCN(CCCCC)/N=N/c1[nH]cnc1C(N)=O | 3.49
13 | CN(C)/N=N/c1[nH]cnc1C(N)=O [DACARBAZINE] | 2.44

species: Mus musculus; assay: Toxicity in CDF1 mouse assessed as concentration required for producing T/C of 140; format: organism-based; settings: in vivo

Row | Structure (SMILES) | log(1/C)
14 | CCCCN(C)/N=N/c1ccc(C(N)=O)cc1 | 3.46
15 | CCCCCCCCN(C)/N=N/c1ccc(C(N)=O)cc1 | 2.8
16 | CN(C)/N=N/c1ccccc1 | 3.43
17 | CN(C)/N=N/c1ccc(S(N)(=O)=O)cc1 | 3.2
18 | CN(C)/N=N/c1ccc(C(F)(F)F)cc1 | 3.05
19 | CN(C)/N=N/c1ccc(C#N)cc1 | 3.2
20 | CN(C)/N=N/c1ccc(NC(N)=O)cc1 | 3.68
21 | Cc1ccc(/N=N/N(C)C)cc1 | 3.26
22 | COc1ccc(/N=N/N(C)C)cc1 | 3.55
23 | CCN(C)/N=N/c1ccc(C(N)=O)cc1 | 3.24
24 | CN(C)/N=N/c1ccc(C(N)=O)cc1 | 3.32
25 | CN(C)/N=N/c1[nH]cnc1C(N)=O [DACARBAZINE] | 2.68

tested on: not listed separately; assay: Half life of the compound at pH 7.4 at 37 degC in presence of serum; format: physicochemical; settings: not given

Row | Structure (SMILES) | half-life
26 | C/N=N/Nc1ccccc1 | 6 min

tested on: L1210; assay: Antitumor activity against mouse L1210 cells allografted in mouse assessed as survival rate at 100 mg/kg relative to control; format: functional; settings: not given

Row | Structure (SMILES) | T/C
27 | CCN(CC)/N=N/c1[nH]cnc1C(N)=O | 127%

tested on: L1210; assay: Antitumor activity against mouse L1210 cells allografted in mouse assessed as survival rate at 200 mg/kg relative to control; format: functional; settings: not given

Row | Structure (SMILES) | T/C
28 | CCCCN(CC)/N=N/c1[nH]cnc1C(N)=O | 124%
29 | CCN(CC)/N=N/c1n[nH]cc1C(N)=O | 144%

tested on: L1210; assay: Antitumor activity against mouse L1210 cells allografted in mouse assessed as survival rate at 265 mg/kg relative to control; format: functional; settings: not given

Row | Structure (SMILES) | T/C
30 | CCCN(CCC)/N=N/c1c(C)n[nH]c1C(=O)OC | 131%

tested on: L1210; assay: Antitumor activity against mouse L1210 cells allografted in mouse assessed as survival rate at 32 mg/kg relative to control; format: functional; settings: not given

Row | Structure (SMILES) | T/C
31 | CCCCN(CCCC)/N=N/c1cc(=O)[nH]c(=O)[nH]1 | 145%

tested on: L1210; assay: Antitumor activity against mouse L1210 cells allografted in mouse assessed as survival rate at 250 mg/kg relative to control; format: functional; settings: not given

Row | Structure (SMILES) | T/C
32 | NC(=O)c1nc[nH]c1/N=N/N1CCCC1 | 126%

tested on: L1210; assay: Antitumor activity against mouse L1210 cells allografted in mouse assessed as survival rate at 20 mg/kg relative to control; format: functional; settings: not given

Row | Structure (SMILES) | T/C
33 | Cc1n[nH]c(C)c1/N=N/N1CCOCC1 | 124%

tested on: L1210; assay: Antitumor activity against mouse L1210 cells allografted in mouse assessed as survival rate at 450 mg/kg relative to control; format: functional; settings: not given

Row | Structure (SMILES) | T/C
34 | CCN(CC)/N=N/c1ccc[n+]([O-])c1 | 141%
